What is called EC50 is the midpoint of the concentration-response curve. The ED50 is the midpoint of the dose-response relation. Low readings indicate an effect at a small dose, high ones a need for a large dose. By AUC(0-t) is commonly meant exposure summed from dosing to a finite time, without extrapolation to infinity. The low end stands for less exposure, the high end for more exposure. One may read the clearance as the volume of plasma or blood freed of the substance per unit of time. One may read the Cmax as the maximum level reached in the sampled fluid or tissue. By Tmax is commonly meant the time at which the peak concentration occurs. In general, bioavailability refers to the share of a dose that reaches the circulation, judged against a reference dose that is usually intravenous.

Each structure is given as a SMILES string. Where a name gives a salt, the structure may show the parent alone. Read-outs that look alike come from different tables or passages of the source.

For data set [1], the target named is T1, GPR40 (Homo sapiens, UniProt O14842).
T1 construct: host or cells: HEK293 (ChemiBrite cell line)
T1 sequence (O14842 whole entry, species assumed): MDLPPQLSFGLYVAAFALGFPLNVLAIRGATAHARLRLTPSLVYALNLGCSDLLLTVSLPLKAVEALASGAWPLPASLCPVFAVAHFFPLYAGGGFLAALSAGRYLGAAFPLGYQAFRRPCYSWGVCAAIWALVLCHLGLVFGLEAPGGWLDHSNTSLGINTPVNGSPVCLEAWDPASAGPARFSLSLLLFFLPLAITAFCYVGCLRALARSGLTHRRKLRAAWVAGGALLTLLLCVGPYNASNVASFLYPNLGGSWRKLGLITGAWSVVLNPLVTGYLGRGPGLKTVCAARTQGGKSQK
Kind of data set: Promoter-luciferase assay to measure GPR40 activation (HEK293 cells stably transfected with GPR40 cDNA). The following applies: HEK293 cells stably transfected with GPR40, 5xSRE-luciferase. The class given is cell-based. As for the experimental part: GPR40 activation was measured in HEK293 cells stably transfected with GPR40 cDNA (ChemiBrite cell lines from Millipore, US). These cells were transiently transfected with a pGL2 (Promega Inc.) plasmid having a 5×SRE sequence, cloned 5′ of a luciferase gene along with a β-galactosidase plasmid as normalizing control. Briefly, 35000 cells/well were seeded in a 96 well plates. After overnight incubation at 37° C., the cells were washed with PBS and transfected with the 5×-SRE-Luciferase plasmid and the β-galactosidase plasmid. 6 h post transfection, media was removed and replaced with fresh media with different concentration of drugs and incubated for 16 more hours. The cells were then lysed in 50 μL of Glo-Lysis buffer (Promega) for 30 min at room temperature. The cells were then centrifuged and lysates were collected. Luciferase activity was measured by adding 100 μL of luciferase substrate (Promega) in 20 μL of lysate and measuring the luminescence in luminometer. The […] activity was also measured by adding 20 μL of lysates with 20 μL of β-galactosidase buffer (Promega) and monitoring the absorbance at 415 nm. Luciferase values were divided by β-galactosidase values to normalize transfection efficiency (Table 2)

The test system of data set [2] is n-STZ rat model. The data set can be described thus: Oral glucose tolerance test in n-STZ rat model. Type of data set: in vivo, Wistar rat. As to conditions: for % improvement in AUC glucose vs. control: n-STZ rat. The protocol: Primary Screening Protocol for GRP40 agonist test compounds in n-STZ rat model
Wistar rat pups of 1-2 day old injected with Streptozotocin (STZ) at 120 mg/kg dose by intraperitoneal route. All pups allowed grow normally and at the age of 12-14 week they were screen for glucose intolerance by performing the oral glucose tolerance test by tail clip method using glucometer. Animals showing glucose intolerance were selected for evaluation of test compound. Three to seven days of rest period animals were kept on overnight fasting. […] Animals were administered with test compound and then 15-60 min after the compound administration “O” min blood glucose levels were measured and immediately glucose load at 2 g/kg was administered orally. Blood glucose levels were measured at 30, 60 and 120 min after glucose load using by tail clip method using glucometer. Blood was also collected at 10 min after glucose load for measurement of insulin levels. Glucose area under the curve (AUC) was calculated using Graph Pad Prism software and % reduction in AUC-glucose vs vehicle treated control was calculated (Table 3).

Data set [3] is described as follows: Pharmacokinetics in rats. As to conditions: rat, in vivo; for MRT: read-out: Mean residence time.
[4] abbreviates: read-out: EC50 in Luciferase assay.

`CC#C[C@@H](CC(=O)[O][Ca][O]C(=O)C[C@H](C#CC)c1ccc(OCc2cccc(CN3CCc4nc(Cl)sc4C3)c2)cc1)c1ccc(OCc2cccc(CN3CCc4nc(Cl)sc4C3)c2)cc1` [Compound 60, Calcium (S)-3-(4-((3-((2-chloro-6,7-dihydrothiazolo[5,4-c]pyridin-5(4H)-yl)methyl)benzyl)oxy)phenyl)hex-4-ynoate]: a half-maximal effect in data set [1] (EC50 in Luciferase assay) (EC50) was put at 5.6 nM. In data set [2] (1 mg/Kg per oral), the “% improvement in AUC glucose vs. control” value is recorded as 44%. Further, in data set [2] (10 mg/Kg per oral), the “% improvement in AUC glucose vs. control” value is 47%. In addition, the 50% effect level in data set [2] (po, n-STZ rat OGTT model) (ED50) was put at a dose of 0.04 mg/kg. Further, in data set [3] (iv 1 mg/Kg), the exposure AUC(0-t) worked out at 18600 ± 2170 ng·h/mL, the C0 worked out at 3390 ± 330 ng/mL, the clearance is 0.89 ± 0.1 mL/min/kg and the MRT was 6.28 ± 0.77 h. Moreover, in data set [3] (iv 1 mg/Kg, read-out: T1/2, iv (converted)), the half-life is 5.57 ± 1.46 h. In addition, the Vd in data set [3] (iv 1 mg/Kg, read-out: Vss) was 0.33 ± 0.01 L/kg. For the same compound, in data set [3] (po 3 mg/Kg), the Cmax is 7770 ± 1940 ng/mL, the Tmax was 1 h and the MRT worked out at 5.74 ± 0.1 h. The bioavailability in data set [3] (po 3 mg/Kg vs iv 1 mg/Kg) was found to be 93%. For the same compound, the half-life in data set [3] (po 3 mg/Kg, read-out: T1/2, po (converted)) was 5.45 ± 0.79 h.
As for `CC#C[C@@H](CC(=O)O)c1ccc(OCc2cccc(CN3CCc4nc(C)sc4C3)c2)cc1` [Compound 10, (S)-3-(4-((3-((2-methyl-6,7-dihydrothiazolo[5,4-c]pyridin-5(4H)-yl)methyl)benzyl)oxy)phenyl)hex-4-ynoic acid], the EC50 in data set [1] (setting [4]) was 16.9 nM. In addition, the entries for the “% improvement in AUC glucose vs. control” value in data set [2] (0.1 mg/Kg per oral), in data set [2] (1 mg/Kg per oral) and in data set [2] (10 mg/Kg per oral) were 21.1%, 35.7% and 45.0%, respectively.
Turning to `CC#C[C@@H](CC(=O)O)c1ccc(OCc2cccc(CN3CCc4sc(C(=O)O)cc4C3)c2)cc1` [Compound 35, (S)-5-(3-((4-(1-carboxypent-3-yn-2-yl)phenoxy)methyl)benzyl)-4,5,6,7-tetrahydrothieno[3,2-c]pyridine-2-carboxylic acid], the EC50 in data set [1] (setting [4]) was 204 nM.
`CC#C[C@H](CC(=O)O)c1ccc(OCc2cccc(CN3CCc4sc(C)cc4C3)c2)cc1` [Compound 55, (R)-3-(4-((3-((2-methyl-6,7-dihydrothieno[3,2-c]pyridin-5(4H)-yl)methyl)benzyl)oxy)phenyl)hex-4-ynoic acid]: the EC50 in data set [1] (setting [4]) is 56.5 nM.
With `CC#C[C@@H](CC(=O)[O][Ca][O]C(=O)C[C@H](C#CC)c1ccc(OCc2cccc(CN3CCc4sc(Cl)cc4C3)c2)cc1)c1ccc(OCc2cccc(CN3CCc4sc(Cl)cc4C3)c2)cc1` [Compound 39, Calcium (S)-3-(4-((3-((2-chloro-6,7-dihydrothieno[3,2-c]pyridin-5(4H)-yl)methyl)benzyl)oxy)phenyl)hex-4-ynoate], it took 1.7 nM to reach a half-maximal effect in data set [1] (EC50 in Luciferase assay) (EC50).
Consider `CC#C[C@@H](CC(=O)O)c1ccc(OCc2cccc(CN3CCc4sc(C(C)=O)cc4C3)c2)cc1` [Compound 72, (S)-3-(4-((3-((2-Acetyl-6,7-dihydrothieno[3,2-c]pyridin-5(4H)-yl)methyl)benzyl)oxy)phenyl)hex-4-ynoic acid], for which, in data set [1] (setting [4]), the EC50 was 2.3 nM.
The same measure, in the same setting: the same measure for `CC#C[C@@H](CC(=O)O)c1ccc(OCc2cccc(CN3Cc4ccccc4C3)c2)cc1` [Compound 12, (S)-3-(4-((3-(isoindolin-2-ylmethyl)benzyl)oxy)phenyl)hex-4-ynoic acid trifluoroacetic acid]: 5.6 nM; for `CC#C[C@@H](CC(=O)O)c1ccc(OCc2cccc(CN3CCc4nc(OC)ncc4C3)c2)cc1` [Compound 50, (S)-3-(4-((3-((2-Methoxy-7,8-dihydropyrido[4,3-d]pyrimidin-6(5H)-yl)methyl)benzyl)oxy)phenyl)hex-4-ynoic acid]: 20.8 nM.
Consider `CC#C[C@@H](CC(=O)O)c1ccc(OCc2cccc(CN3CCc4sc(C5CC5)cc4C3)c2)cc1` [Compound 69, (S)-3-(4-((3-((2-Cyclopropyl-6,7-dihydrothieno[3,2-c]pyridin-5(4H)-yl)methyl)benzyl)oxy)phenyl)hex-4-ynoic acid compound with 2,2,2-trifluoroacetic acid], for which the concentration giving a half-maximal response (EC50) in data set [1] (setting [4]) was 0.8 nM.
In the case of `CC#CC(CC(=O)O)c1ccc(OCc2cccc(CN3CCc4sc(C)cc4C3)c2)cc1` (stereo not shown) [Compound 58, 3-(4-((3-((2-Methyl-6,7-dihydrothieno[3,2-c]pyridin-5(4H)-yl)methyl)benzyl)oxy)phenyl)hex-4-ynoic acid], the EC50 in data set [1] (setting [4]) came out at 3.7 nM.
As to `CC#C[C@@H](CC(=O)O)c1ccc(OCc2cccc(CN3CCCc4ccccc43)c2)cc1` [Compound 13, (S)-3-(4-((3-((3,4-dihydroquinolin-1(2H)-yl)methyl)benzyl)oxy)phenyl)hex-4-ynoic acid], the half-maximal effective concentration (EC50) in data set [1] (setting [4]) was found to be 0.8 nM.
On to `CC#C[C@@H](CC(=O)O)c1ccc(OCc2cccc(CN3CCc4sc(C(=O)NC)cc4C3)c2)cc1` [Compound 46, (S)-3-(4-((3-((2-(methylcarbamoyl)-6,7-dihydrothieno[3,2-c]pyridin-5(4H)-yl)methyl)benzyl)oxy)phenyl)hex-4-ynoic acid], for which the half-maximal effective concentration (EC50) in data set [1] (setting [4]) is 6 nM.
Turning to `CC#C[C@@H](CC(=O)O)c1ccc(OCc2cccc(CN3CCc4sc(C(F)F)cc4C3)c2)cc1` [Compound 18, (S)-3-(4-((3-((2-(Difluoromethyl)-6,7-dihydrothieno[3,2-c]pyridin-5(4H)-yl)methyl)benzyl)oxy)phenyl)hex-4-ynoic acid], the half-maximal effective concentration (EC50) in data set [1] (setting [4]) was 8.8 nM.
Same read-out and setting: with `CC#C[C@@H](CC(=O)O)c1ccc(OCc2cccc(CN3CCc4sc(C(=O)N5CCCC5)cc4C3)c2)cc1` [Compound 62, (S)-3-(4-((3-((2-(pyrrolidine-1-carbonyl)-6,7-dihydrothieno[3,2-c]pyridin-5(4H)-yl)methyl)benzyl)oxy)phenyl)hex-4-ynoic acid] the figure was 3 nM; with `CC#C[C@@H](CC(=O)O)c1ccc(OCc2cccc(CN3CCc4sc(C#N)cc4C3)c2)cc1` [Compound 43, (S)-3-(4-((3-((2-cyano-6,7-dihydrothieno[3,2-c]pyridin-5(4H)-yl)methyl)benzyl)oxy)phenyl)hex-4-ynoic acid], 7.3 nM.
On the same count and under the same terms, the same measure for `CC#C[C@@H](CC(=O)O)c1ccc(OCc2cccc(CN3CCc4nc(Br)sc4C3)c2)cc1` [Compound 32, (S)-3-(4-((3-((2-Bromo-6,7-dihydrothiazolo[5,4-c]pyridin-5(4H)-yl)methyl)benzyl)oxy)phenyl)hex-4-ynoic acid]: 4.8 nM.
With `CC#C[C@@H](CC(=O)O)c1ccc(OCc2cccc(CN3CCc4ccccc43)c2)cc1` [Compound 24, (S)-3-(4-((3-(Indolin-1-ylmethyl)benzyl)oxy)phenyl)hex-4-ynoic acid], the EC50 in data set [1] (setting [4]) came to 0.7 nM.
As to `CC#C[C@@H](CC(=O)O)c1ccc(OCc2cccc(CN3CCCC3c3ccccc3)c2)cc1` (stereo partly drawn) [Compound 51, (3S)-3-(4-((3-((2-phenylpyrrolidin-1-yl)methyl)benzyl)oxy)phenyl)hex-4-ynoic acid], the EC50 in data set [1] (setting [4]) came out at 3 nM.
On to `CC#C[C@@H](CC(=O)O)c1ccc(OCc2cccc(CN3CCc4oc(C5CC5)nc4C3)c2)cc1` [Compound 26, (S)-3-(4-((3-((2-Cyclopropyl-6,7-dihydrooxazolo[4,5-c]pyridin-5(4H)-yl)methyl)benzyl)oxy)phenyl)hex-4-ynoic acid], for which the EC50 in data set [1] (setting [4]) worked out at 4.1 nM.
On to `CC#C[C@@H](CC(=O)[O][Ca][O]C(=O)C[C@H](C#CC)c1ccc(OCc2cccc(CN3CCc4ccccc4C3)c2)cc1)c1ccc(OCc2cccc(CN3CCc4ccccc4C3)c2)cc1` [Compound 20, Calcium (S)-3-(4-((3-((3,4-dihydroisoquinolin-2(1H)-yl)methyl)benzyl)oxy)phenyl)hex-4-ynoate], for which the EC50 in data set [1] (EC50 in Luciferase assay) amounted to 2.7 nM.
For the compound `CC#C[C@@H](CC(=O)O)c1ccc(OCc2cccc(CN3CCCc4ccc(OC)cc43)c2)cc1` [Compound 30, 1-(3-((4-((S)-1-carboxypent-3-yn-2-yl)phenoxy)methyl)benzyl)-7-methoxy-1,2,3,4-tetrahydroquinolin-1-ium formate], the concentration giving a half-maximal response (EC50) in data set [1] (setting [4]) came out at 4.5 nM.
With `CC#C[C@@H](CC(=O)O)c1ccc(OCc2cccc(CN3CCc4ncccc4C3)c2)cc1` [Compound 68, (S)-3-(4-((3-((7,8-Dihydro-1,6-naphthyridin-6(5H)-yl)methyl)benzyl)oxy)phenyl) hex-4-ynoic acid], in data set [1] (setting [4]), the 50% effective concentration (EC50) worked out at 11.9 nM.
With `CC#C[C@@H](CC(=O)O)c1ccc(OCc2cccc(CN3CCc4nc(N)sc4C3)c2)cc1` [Compound 38, (S)-3-(4-((3-((2-amino-6,7-dihydrothiazolo[5,4-c]pyridin-5(4H)-yl)methyl)benzyl)oxy)phenyl)hex-4-ynoic acid], the EC50 in data set [1] (setting [4]) was found to be 17.8 nM.
